# Measurements as given in ChEMBL document CHEMBL1125168, “Antihypertensive activity of redox derivatives of tryptophan” (J Med Chem, 1990).
# Assay: Second-order rate of Ferricyanide -mediated oxidation using spectrophotometric method
# Assay type: ADME
row,Compound,Ko [M⁻¹ s⁻¹]
1,CCCCCCCCOC(=O)C(Cc1c[nH]c2ccccc12)NC(=O)c1ccc[n+](C)c1 (centres undefined),7.61
2,COC(=O)C(Cc1c[nH]c2ccccc12)NC(=O)c1ccc[n+](C)c1 (centres undefined),13.8
3,CCOC(=O)C(Cc1c[nH]c2ccccc12)NC(=O)c1ccc[n+](C)c1 (centres undefined),13.5
4,C[n+]1cccc(C(=O)NC(Cc2c[nH]c3ccccc23)C(=O)OC2CCCCC2)c1 (centres undefined),12.2
